We go through 1 compound from patent US9121026B2 (priority 2004, dated 2015).

Experiment [1] deals with S. cerevisiae strain RE700A. In words: Growth inhibition of RE700A by 2-DG in liquid maltose medium (OD600, integral under growth curve). In kind it is cell-based, Saccharomyces cerevisiae. The procedure: FIG. 1: Growth inhibition of S. cerevisiae strain RE700A at increasing 2-deoxy-glucose (2-DG) concentrations after incubation at 280 C for 20 h. RE700A was incubated for 20 h at 28° C. with maltose (2% (w/v)) as the sole carbon source and 2-DG at the concentrations indicated. The optical density was measured at 600 nm every 15 minutes and the integral under the growth curve was calculated. Inhibition of growth is shown in percent of growth of RE700A in the absence of 2-DG. The strain grew well in the presence of up to 0.5% (w/v) 2-DG.
Strain growth: The growth of the strains in liquid medium was determined by measuring the optical density at 600 nm. To obtain growth curves, measurements were performed every 15 min. Alternatively, start and endpoint (after 12-16 h) measurements were carried out.
The screening system used Saccharomyces cerevisiae RE700A, a yeast strain deprived of the seven most important glucose transporters (HXT1-7) (Reifenberger, E. et al., Molecular Microbiology 16:157-167 (1995)). The strain is not able to grow on glucose as the sole carbon source. It grows on maltose (2% (w/v)) as the sole carbon source. In addition, the strain grows well on maltose also in the presence of up to 0.5% (w/v) 2-deoxy-glucose (2-DG), a toxic glucose analogue, in the medium (FIG. 1). Growth is inhibited by 50% at a 2-DG concentration in liquid media of ˜1% (w/v) (FIG. 1).

The test system of experiment [2] is RE700A Δpdr1 tok1::PPDR5long-HXT7. In words: Growth of RE700A Δpdr1 tok1::PPDR5long-HXT7 in the presence of 2-DG. Type of experiment: cell-based, Saccharomyces cerevisiae. Conditions: RE700A Δpdr1 tok1::PPDR5long-HXT7, 20 h 28° C. The procedure: (B) Relative growth of RE700A tok1::PPDR5long-HXT7, RE700A Δpdr1 tok1::PPDR5long-HXT7, RE700A Δpdr3 tok1::PPDR5long-HXT7 and RE700A Δpdr1,3 tok1::PPDR5long-HXT7 in the presence of 2-DG. Cells were incubated for 20 h at 28° C. with 2-DG at different concentrations. […] The standard error of the mean (n=5) is indicated.

`O=CC[C@@H](O)[C@H](O)[C@H](O)CO` [2-DG, 2-deoxy-glucose]: the “2-DG concentration at which growth is inhibited by 50%” value in experiment [1] (liquid media, maltose) is reported as ~1 % (w/v). The “2-DG concentration up to which the strain grows well” value in experiment [1] (maltose 2% (w/v) sole carbon source, 20 h, 28° C.) is listed as “up to 0.5 % (w/v)”. Further, the “2-DG concentration for 50% growth inhibition” value in experiment [2] is on record as 0.068 % (w/v).
